“And” between values parts separate entries of the source, which are not always exact repeats. Identical values can stand only once.
How the values were obtained:
[1] = Detoxification of pesticides on cotton/polyester fabrics treated with DMDMH and chlorine bleach, percentage reduction by GC; conditions: 6% DMDMH, 5 min contact
Description: Polyester/cotton fabrics were washed in a domestic washing machine at 50° C. prior to the actual treatment of the functional compounds.
The grafting of hydantoin ring onto the cotton/polyester fabrics was carried out using a wet finishing process. The weighed fabrics were submerged into an aqueous 6% (w/w) DMDMH solution for 5 min. and then wringed through a padder to secure a wet pickup of 70-100% through a 2 dip-2 nip cycle. These wet fabrics were then oven-dried at 85° C. for 5 min. and cured at 150° C. for 5 min. Following this, the fabrics were washed in water at 50° C. for 30 min. to remove any excess chemicals on the surface of the fabrics.
After the wet finishing process, the treated fabrics were bleached with solutions containing 0.01% and 0.1% (w/v) active chlorine content. The treated fabrics were submerged into aqueous bleach solution at one of the specified concentrations at 25° C. for 15 min. Then, the fabrics were air dried and stored at standard condition (25° C., 65% relative humidity). The chemically finished fabrics were then cut into 3×3 inches square swatches for exposure to pesticides in the subsequent testing.
Methomyl and aldicarb were dissolved in methanol at three different concentrations: 250, 500 and 1000 ppm. One mL of one of these pesticide solutions was directly loaded onto a fabric swatch. A contact time of 5 min. was allowed before the exposed fabric was extracted in organic solvent for detoxification assessment and degradation analysis. Fabrics that were not treated with DMDMH and bleach were also used as control samples.
The extraction of the exposed swatches was done by soaking a swatch into an initial volume of 50 mL ethyl acetate for 15 min. with vigorous agitation. The extraction was repeated with another 50 mL of ethyl acetate; the combined 100 mL of the extracted solvent was reduced to 2 mL in volume by rotor-evaporation under partial vacuum at 40° C. To this 2-mL sample, 1 μL of 2-ethyl-5-methyl pyridine was added as an internal standard for quantitation during the chromatographic analysis. After which, 1 μL of the extracted sample was injected into a gas chromatograph.
Gas chromatography was performed on a Hewlett Packard 5890 series II GC, equipped with a nitrogen-phosphorus detector (NPD), using a 15 m×0.25 mm I.D. DB-1 column, 0.25 μm film (J&W Co.). The temperature program was initially set at 100° C. for 3 min., raised at a rate of 7° C./min. to 250° C. and held for 5 min. The injector and detector were set at 250° C. and 280° C. respectively. Helium was used as the carrier gas at a flow rate of 0.84 mL/min; hydrogen flow rate was 2.98 mL/min; nitrogen flow rate was 29.16 mL/min. A split injection was used at a split ratio of 25:1. The responses of the resulting peak areas and relative peak areas were integrated and recorded using a HP 3396 II integrator. For each sample, at least three or more repetitions at each condition were carried out.
Using the materials and methods sets forth above, three different concentrations of methomyl were detoxified by halamine structures on the fabrics. Relative peak area response factors (peak area response of pesticide divided by peak area response of internal standard) of the control fabrics were used to determine the original amount of pesticide on the fabrics at 0% reduction. […] After this difference was divided by the original amount, it was expressed as the percentage reduction of pesticide at those various concentrations.

[2] = Pesticide reduction at various pesticide/chlorine ratios; conditions: Pesticide/Chlorine Ratio 1:4
Text: In certain aspects, the concentration of the pesticide (e.g., methomyl) that was exposed to the fabric was proportional to the percent reduction of the pesticide. Without being bound by a particular theory, it is believed that the pesticide/halamine ratio is more critical to reduction than the actual contact time of the pesticide with the fabric. A pesticide to halamine ratio of about 10:1 to about 1:10 is suitable for the present methods, preferably, a ratio of about 5:1 to about 1:5 is used and, more preferably, a ratio of about […] is used.

male rats = conditions: cited from earlier work
[3] = cited from earlier work
[4] = chlorine/methomyl ratio of 10 to 1; cited from earlier work

Structure (SMILES) | percentage reduction of pesticide ([1]; 250 ppm pesticide, 0.01% active chlorine treatment) | percentage reduction of pesticide ([1]; 250 ppm pesticide, 0.1% active chlorine treatment) [%] | percentage reduction of pesticide ([1]; 500 ppm pesticide, 0.1% active chlorine treatment) [%] | percentage reduction of pesticide ([1]; 1000 ppm pesticide, 0.01% active chlorine treatment) | percentage reduction of pesticide ([1]; 1000 ppm pesticide, 0.1% active chlorine treatment) | Pesticide Reduction (%) [2] [%] | Toxicity, mg/kg (LD50, male rats) (male rats) [mg/kg] | Vapor Pressure mm Hg (25-30° C.) [3] | disappearance in aqueous solution [4]
CNC(=O)ON=C(C)SC [Methomyl, S-methyl N-(methyl carbamoyloxy) thioacetimidatel] | 9.35% and 9.4% | 19.9 | 18.6 | 4.43% and 4.4% | 11.63% and 11.6% | 79.52 | 21 | 5 × 10^−5 mm Hg | disappear rapidly
CNC(=O)Oc1cccc2ccccc12 [Carbaryl] |  |  |  |  |  | 8.02 |  |  | 
CNC(=O)Oc1cccc2c1OC(C)(C)C2 [Carbofuran] |  |  |  |  |  | 13.82 |  |  | 

— patent US6679922B1, “Pesticide protective articles” (priority 1998, dated 2004)
